Test results taken from paper PMC5635026, “Homo-PROTACs: bivalent small-molecule dimerizers of the VHL E3 ubiquitin ligase to induce self-degradation” (Nature Communications, 2017).

How the values were obtained:
HeLa cells = assay: Isobaric tagging (TMT) MS proteomics in HeLa cells, proteome-wide degradation; assay type: cell-based, Human; details: 1 µM for 10 h, compared to DMSO or VHL inhibitor treatment
Experimental: (§1) MS proteomics. Sample preparation. HeLa cells were seeded at 5 × 10^6 on a 10 cm plate 16 h before treatment. […] Cells were incubated at 37 °C and 5% CO2 for 10 h before harvesting. Cells were placed on ice and medium was removed and cells were washed twice with cold PBS. Cells were lysed in 0.5 ml of 100 mM Tris pH 8.0, 4% (w/v) SDS supplemented with protease inhibitor cocktail (Roche). The lysate was pulse sonicated briefly and then centrifuged at 17,000 × g for 15 min at 4 °C. The supernatant fraction of cell extract was snap-frozen in liquid nitrogen and stored in −80 °C freezer. Further sample processing, digestion, desalting, labeling and fractionation were performed as previously described.
(§2) nLC-MS/MS analysis. The TMT 10plex fractions were first analyzed as previously described. Briefly, the TMT 10plex fractions were analyzed sequentially on a Q Exactive HF Hybrid Quadrupole-Orbitrap Mass Spectrometer (Thermo Scientific) coupled to an UltiMate 3000 RSLCnano UHPLC system (Thermo Scientific) and EasySpray column (75 μm × 50 cm, PepMap RSLC C18 column, 2 μm, 100 Å, Thermo Scientific). The MS2 isolation window was set to 0.4 Da and the resolution set at 120,000. MS2 resolution was set at 60,000. The AGC targets for MS1 and MS2 were set at 3e^6 ions and 1e5 ions, respectively. The normalized collision energy was set at 32%. […] After the first analysis, the TMT labeled fractions were re-analyzed on the Q-Exactive HF using the same instrument settings and a target list generated from a theoretical trypsin digest of VHL. […] After the second analysis, two fractions were further analyzed using a targeted SIM/ddMS2 method on the Q-Exactive HF. […]
(§3) Peptide and protein identification. All the raw MS data files from the three analyses were merged and searched against the Uniprot-sprot-Trembl-Human-Canonical database by Maxquant software 1.5.3.30 for protein identification and TMT reporter ion quantitation. […] Quantified proteins were filtered if the absolute fold-change difference between the two DMSO replicates was ≥ 1.5.

pVHL19 = pVHL19 (Homo sapiens, UniProt P40337); assay: Immunoblot of pVHL19 protein level in HeLa cells after compound treatment; assay type: cell-based; set-up: endogenous in cells; host or cells: HeLa; details: 1 µM, 10 h, DMSO = 100, Fig. 4a, read-out: pVHL19 band quantification normalized to 0.1% DMSO
Sequence of pVHL19 (P40337 54-213): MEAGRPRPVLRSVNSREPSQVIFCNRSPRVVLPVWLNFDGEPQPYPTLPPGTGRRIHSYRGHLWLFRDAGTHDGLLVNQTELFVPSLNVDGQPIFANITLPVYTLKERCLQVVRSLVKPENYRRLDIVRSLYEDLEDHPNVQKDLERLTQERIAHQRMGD
Sequence of pVHL19 (Q15369 whole entry partner): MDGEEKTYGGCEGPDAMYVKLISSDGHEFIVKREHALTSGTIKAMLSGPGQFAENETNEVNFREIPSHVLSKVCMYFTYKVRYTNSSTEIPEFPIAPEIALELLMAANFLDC
Sequence of pVHL19 (Q15370 whole entry partner): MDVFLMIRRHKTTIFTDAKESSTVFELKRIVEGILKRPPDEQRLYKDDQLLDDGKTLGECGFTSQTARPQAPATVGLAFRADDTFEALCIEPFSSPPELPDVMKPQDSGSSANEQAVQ
Experimental: (§4) Cell culture. Human cell lines HeLa, U2OS and HEK 293, purchased from ATCC, were propagated in DMEM supplemented with 10% fetal bovine serum (FBS), L- glutamine, 100 μg ml^−1 of penicillin/streptomycin at 37 °C and 5% CO2. Cells were maintained for no more than 30 passages. All cell lines were routinely tested for mycoplasma contamination using MycoAlert kit from Lonza. For compound treatment experiments, cells were transferred in six-well plates with either 3 × 10^5 or 5 × 10^5 cells per well in 2 ml of media. At 80% confluence, cells were treated with compounds at the desired concentration, reaching final DMSO concentration of 0.1% v/v. Cells were incubated at 37 °C and 5% CO2 for the desired time before harvesting.
(§5) Immunoblotting. Cells were lysed in lysis buffer (20 mM Tris pH 8, 150 mM NaCl, 1% Triton × 100) and a protease inhibitor cocktail (Roche) per 10 ml buffer. For protein extracts, the dishes were placed on ice. The media was aspirated and the tissue layer washed twice with ice-cold phosphate buffer saline (PBS). Lysis buffer (120 μl) was added and the cells detached from the surface with a cell scraper. After removal of the insoluble fraction by centrifugation, the protein concentration of the supernatant was determined by Pierce™ Coomassie (Bradford) Protein Assay Kit. Protein extracts were fractionated by SDS-PAGE on 4–12% Tris-Acetate NuPage® Novex® (Life Technologies) polyacrylamide gels and transferred to a nitrocellulose membrane using wet transfer. The membrane was then blocked with 5 % w/v Bovine serum albumin (BSA) in Tris-buffered saline (TBS) with 0.1% w/v Tween-20. For detecting proteins the following primary antibodies in the given concentrations were used: anti-β-Actin (Cell Signaling Technology, 4970S, 13E5) 1:2000, anti-VHL (Cell Signaling Technology, #68547) 1:1000, anti-Hif-1α (BD Biosciences, 610959, clone 54) 1:1,000, anti-hydroxy-HIF-1α (Hyp564) (Cell Signaling Techonology; #3434) 1:1,000, anti-PHD2 (Bethyl Laboratories; A300-322A) 1:1,000, anti-PHD3 (Bethyl Laboratories; A300-327A) 1:1000, anti-CRBN (Proteintech; 11435-1-AP) 1:1,000. Following incubation with a horseradish peroxidase-conjugated secondary antibody (Cell Signaling Technology), the signal was developed using enhanced chemiluminescence (ECL) Western Blotting Detection Kit (Amersham) on Amersham Hyperfilm ECL film (Amersham). Band quantification was performed using ImageJ software and reported as relative amount as ratio of the each protein band relative to the lane’s loading control. The values obtained were then normalized to 0.1% DMSO vehicle control. See Supplementary Fig. 12 for full-scanned images of western-blots shown in the main text figures.

pVHL30 = pVHL30 (Homo sapiens, UniProt P40337); assay: Immunoblot of pVHL30 protein level in HeLa cells after compound treatment; assay type: cell-based; set-up: endogenous in cells; host or cells: HeLa; details: for depletion of target protein (pVHL30 / VHL) / remaining activity at 1 µM: 10 h; for remaining activity at 1 µM: DMSO = 100, Fig. 4a, read-out: pVHL30 band quantification normalized to 0.1% DMSO
Sequence of pVHL30 (P40337 whole entry): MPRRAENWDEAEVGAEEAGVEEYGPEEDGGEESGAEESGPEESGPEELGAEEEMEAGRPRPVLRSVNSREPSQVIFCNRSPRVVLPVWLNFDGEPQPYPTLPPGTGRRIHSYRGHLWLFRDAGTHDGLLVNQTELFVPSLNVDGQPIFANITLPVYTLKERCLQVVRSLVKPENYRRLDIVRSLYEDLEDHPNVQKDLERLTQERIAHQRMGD
Experimental: as §4, §5

[1] = system: Putative glycerol kinase 5 (GK5); assay: TMT MS proteomics in HeLa cells, GK5 abundance; assay type: cell-based, Homo sapiens; details: 1 µM, 10 h, two replicates
Experimental: as §1, §2, §3

Row | Structure (SMILES) | proteins depleted amongst 6,450 detected proteins (HeLa cells) | remaining activity at 1 µM (pVHL19) | depletion of target protein (pVHL30 / VHL) (pVHL30; 1 µM) | remaining activity at 1 µM (pVHL30; 1 µM) | average normalized ratio to DMSO, GK5 [1] | degradation of pVHL in time course (pVHL30; 1 µM, even in the longer time points) | increase in cellular activity compared to parent inhibitor VH032 (pVHL30) | pVHL30 levels detected (pVHL30; 1 µM, after 24–36 h treatment) | decrease of pVHL30 level (pVHL30; 1 µM, after 2 h) | decrease of pVHL30 level (pVHL30; 1 µM, after 8 h) | DC99 (complete depletion of pVHL30) (pVHL30; 4 h) | effective degrading concentrations lower than inhibitory concentrations of VH032 (pVHL30; compared to VH032)
1 | Cc1ncsc1-c1ccc(CNC(=O)[C@@H]2C[C@@H](O)CN2C(=O)[C@@H](NC(=O)COCCOCCOCCOCCOCC(=O)N[C@H](C(=O)N2C[C@H](O)C[C@H]2C(=O)NCc2ccc(-c3scnc3C)cc2)C(C)(C)C)C(C)(C)C)cc1 [CM10, N ^1 ,N ^17-bis((S)-1-((2S,4R)-4-hydroxy-2-((4-(4-methylthiazol-5-yl)benzyl)carbamoyl)pyrrolidin-1-yl)-3,3-dimethyl-1-oxobutan-2-yl)-3,6,9,12,15-pentaoxaheptadecanediamide] | no proteins other than Cul2 were substantially depleted | 92% | total knockdown | 3% | 1.22 |  |  |  |  |  |  | 
2 | Cc1ncsc1-c1ccc(CNC(=O)[C@@H]2C[C@@H](O)CN2C(=O)[C@@H](NC(=O)COCCOCCOCCOCC(=O)N[C@H](C(=O)N2C[C@H](O)C[C@H]2C(=O)NCc2ccc(-c3scnc3C)cc2)C(C)(C)C)C(C)(C)C)cc1 [CM09, N ^1 ,N ^14-bis((S)-1-((2S,4R)-4-hydroxy-2-((4-(4-methylthiazol-5-yl)benzyl)carbamoyl)pyrrolidin-1-yl)-3,3-dimethyl-1-oxobutan-2-yl)-3,6,9,12-tetraoxatetradecanediamide] | no proteins other than Cul2 were substantially depleted | 102% |  | 19% | 1.05 | Incomplete degradation |  |  |  |  |  | 
3 | Cc1ncsc1-c1ccc(CNC(=O)[C@@H]2C[C@@H](O)CN2C(=O)[C@@H](NC(=O)COCCOCCOCCOCCOCCOCC(=O)N[C@H](C(=O)N2C[C@H](O)C[C@H]2C(=O)NCc2ccc(-c3scnc3C)cc2)C(C)(C)C)C(C)(C)C)cc1 [CM11, N ^1 ,N ^20-bis((S)-1-((2S,4R)-4-hydroxy-2-((4-(4-methylthiazol-5-yl)benzyl)carbamoyl)pyrrolidin-1-yl)-3,3-dimethyl-1-oxobutan-2-yl)-3,6,9,12,15,18-hexaoxaicosanediamide] | no proteins other than Cul2 were substantially depleted | 91% | total knockdown | 1% | 0.94 |  | > 1000 fold | up to 11% | > 70% | essentially to completion | 10 nM | > 3 orders of magnitude
